From patent publication US8796302B2 (priority 2004, dated 2014)

Key:
[1] = tested on: NO; test: NO production (nitrite, Griess reagent) after LPS; format: cell-based, rat; conditions: for LPS-stimulated NO production (nitrite): 24 after LPS 20 ng/ml
Procedure: Different pro-inflammatory factors that are released from microglia were also monitored. The production of NO was determined by measuring the accumulated levels of nitrite in the supernatant with the Griess reagent, and release of TNFα was measured with a rat TNFα enzyme-linked immunosorbent assay kit from R & D System (Minneapolis, Minn.).
The cultures were prepared as in Example 1 and were first treated with LPS 20 ng/ml or vehicle; 12 hours later the LPS was removed and the cultures were treated with 10^−5 M, 10^−10M, and 10^−14M DM. Twenty four hours later, nitrite oxide and PGE2 production were assessed as in Example 5. The results are expressed as a percentage of LPS treated culture and are the mean±S.E.M of four and three experiments with triplicates in each experiment. *, p<0.05 compared with the LPS-treated culture. ###, P<0.001 compared with the control culture.
Production of nitric oxide (NO) was determined in the mesencephalic neuron-glia cultures, following pretreatment and LPS stimulation as described above, by measuring the accumulated levels of nitrite in the supernatant with Griess reagent. Accumulation of nitrite, an indicator of LPS-stimulated production of NO, was determined 24 after LPS stimulation.

[2] = tested on: CD-1 mice given LPS/GalN; test: Liver histology in LPS/GalN endotoxic shock; format: in vivo, mouse
Procedure: Serum alanine aminotransferase (ALT) activity was assayed as a marker of hepatocellular death using a commercially available kit (Infinite ALT, Sigma, St. Louis, Mo.). A portion of the liver was fixed in 10% neutral formalin, processed by standard histological techniques, stained with hematoxylin and eosin, and examined for morphological evidence of liver injury.
Sections of the mice livers were stained with hematoxylin and eosin, and photomicrographs were taken at 100× magnification.

[3] = tested on: TNFα; test: Serum and liver TNFα (ELISA) in LPS/GalN endotoxic shock; format: in vivo, mouse
Procedure: Blood was collected from the eye while the mice were anesthetized, and then perfused with saline. Perfused liver samples were collected and frozen at −70° C. The blood samples were stored at 4° C. overnight and then centrifuged at 1500×g at 4° C. for 15 min. Serum was collected and stored at −70° C. for ALT, and TNFα ELISA assays. The frozen liver samples were homogenized in 10 mg/ml cold lysis buffer (20 mM Tris, 0.25 M sucrose, 2 mM EDTA, 10 mM EGTA, 1% Triton X-100 and protein cocktail inhibitor), and then centrifuged at 35,000×g for 40 min. The supernatant was then collected for protein assay using BCA Protein Assay Reagent Kit (Prod#23227, PIERCE), and ELISA for TNFα.
The levels of TNFα in the serum and liver were determined as in Example 1.
TNFα, an important factor that plays an important role in sepsis, was studied as a mechanism of the protective effect of DM in LPS/GalN-challenge mice. DM (12.5 mg/kg, […].) was administered to mice, followed by LPS/GalN challenge 30 min later. Serum and liver TNFα level was assessed using ELISA at the indicated time points.

[4] = tested on: GalN/LPS-induced liver gene expression; test: Liver gene expression (real-time RT-PCR) after GalN/LPS; format: in vivo, mouse
Excerpt: Total RNA was extracted from liver tissues (n=4 to 5) by Trizol reagent (Sigma, St. Louis, Mo.) and purified with an RNeasy column (Qiagen, Valencia, Calif.). Expression of the selected genes was quantified using real-time RT-PCR analysis that began by reverse transcribing the samples with MuLV reverse transcriptase and oligo-dT primers.
The SYBR green DNA PCR kit (Applied Biosystems, Foster City, Calif.) was used for real-time PCR analysis. The relative differences in expression between groups were expressed using cycle time (Ct) values and the relative differences between groups were expressed as relative increases setting control as 100%. Assuming that the Ct value is reflective of the initial starting copy and that there is 100% efficacy, a difference of one cycle is equivalent to a two-fold difference in starting copy.

[5] = tested on: primary rat microglia; test: Microglia number (CyQUANT) in microglia-enriched cultures; format: cell-based
Procedure: Primary rat microglia-enriched cultures were used to determine if VPA treatment affected the total number of microglia. Microglia cell number was determined as follows. Primary microglia-enriched cultures were prepared from the whole brains of 1-day-old rats as described previously. After one day in vitro were treated with the indicated concentrations of VPA (0.05, 0.1, 0.2, 0.4, 0.6, 0.8, 1.0, or 1.2 mM) for 48 h, or with 0.6 mM VPA for different times (6, 12, 24 or 48 h). […] The total number of microglia was counted by using the CyQUANT cell proliferation assay kit (Molecular Probes, Inc.).

[6] = tested on: GDNF; test: GDNF mRNA (real-time PCR) in primary astroglia; format: cell-based, rat; conditions: VPA 0.6 mM
Procedure: Rat primary astroglias were exposed to 0.6 in M VPA for various times ranging from 6 to 48 hours. Total RNA was extracted from cells by Tri reagent (Sigma) and purified with RNeasy columns (Qiagen, Valencia, Calif.). Expression of the selected genes was quantified using real-time RT-PCR analysis. Briefly, total RNA was reverse transcribed with MuLV reverse transcriptase and oligo-dT primers. The forward and reverse primers for selected genes were designed using Primer Express software. The SYBR green DNA PCR kit (Applied Biosystems, Foster City, Calif.) was used for real-time PCR analysis. The relative differences in expression between groups were expressed using cycle time (Ct) values and the relative differences between groups were expressed as relative increases setting the control as 100%. Assuming that the Ct value is reflective of the initial starting copy and that there is 100% efficacy, a difference of one cycle is equivalent to a two-fold difference in the starting copy.

[7] = DM 12.5 mg/kg 30 min before LPS/GalN, 1.5 and 2 hours
[8] = ratio to control, 12 hr, DM 12.5 mg/kg sc x2

## COc1ccc2c(c1)[C@@]13CCCC[C@H]1[C@@H](C2)N(C)CC3 [DM, d-3-methoxy-N-methylmorphinan]
[1]; DM 10^−5 M and 10^−14 M pretreatment
  LPS-induced increase in the release of NO: significantly decreased
[1]; DM 10^−10 M pretreatment
  LPS-induced increase in the release of NO: no significant reduction
[1]; femtomolar DM after removal of LPS (20 ng/ml, 12 h), 24 h
  NO production, post treatment: reduction of NO and PGE2 production
[2]; 100 pg/kg DM plus LPS/GalN
  liver histology (hematoxylin and eosin): cell death is mild
[2]; 1 μg/kg DM plus LPS/GalN
  liver histology (hematoxylin and eosin): hepatic congestion and cell death are obvious
[2]; 10 mg/kg DM plus LPS/GalN
  liver histology (hematoxylin and eosin): hepatic congestion and cell death are mild
[2]; DM treatments, 12 hours after LPS/GalN
  liver pathological alterations (necrosis, apoptosis, swelling): dramatically ameliorated
[3]; [7]
  liver TNFα level: significantly decreased TNFα level
  serum TNFα level: significantly decreased TNFα level
[3]; DM 30 min post LPS/GalN (data not shown)
  TNFα level: suppression of TNFα level was also found
[4]; 12 hr after GalN/LPS, DM 12.5 mg/kg sc x2, controls 1.0, LPS/GalN alone 153.3 ± 6.4
  MIP-2 expression, LPS + DM: 39.0 ± 2.1 fold
[4]; 12 hr, DM 12.5 mg/kg sc x2, controls 1.0, LPS/GalN alone 7.4 ± 0.3
  GADD153 expression, LPS + DM: 2.7 ± 1.3 fold
[4]; 12 hr, DM 12.5 mg/kg sc x2, controls 1.0, LPS/GalN alone 8.45 ± 1.3
  ICAM-1 expression, LPS + DM: 5.05 ± 2.7 fold
[4]; 12 hr, DM 12.5 mg/kg sc x2, controls 1.0, LPS/GalN alone 13.7 ± 2.9
  mKC expression, LPS + DM: 5.8 ± 1.6 fold
[4]; 12 hr, DM 12.5 mg/kg sc x2, controls 1.0, LPS/GalN alone 24.6 ± 12.4
  GADD45 expression, LPS + DM: 5.3 ± 2.4 fold
[4]; 12 hr, DM 12.5 mg/kg sc x2, controls 1.0, LPS/GalN alone 25.3 ± 2.9
  IL-10 expression, LPS + DM: 15.0 ± 3.3 fold
[4]; 12 hr, DM 12.5 mg/kg sc x2, controls 1.0, LPS/GalN alone 28.0 ± 7.5
  c-jun/AP-1 expression, LPS + DM: 9.1 ± 0.8 fold
[4]; 12 hr, DM 12.5 mg/kg sc x2, controls 1.0, LPS/GalN alone 45.4 ± 3.6
  c-myc expression, LPS + DM: 18.4 ± 2.1 fold
[4]; 12 hr, DM 12.5 mg/kg sc x2, controls 1.0, LPS/GalN alone 94.2 ± 2.5
  Thrombospondin-1 expression, LPS + DM: 56.0 ± 1.57 fold
[4]; 12 hr, DM 12.5 mg/kg sc x2, controls 1.0, LPS/GalN alone 153.4 ± 13.3
  IL-6 expression, LPS + DM: 43.6 ± 6.3 fold
[4]; [8]
  GADD45, LPS + DM/Cont: 5.3 fold
  GADD153, LPS + DM/Cont: 2.7 fold
  ICAM-1, LPS + DM/Cont: 5.05 fold
  IL-6, LPS + DM/Cont: 43.6 fold
  IL-10, LPS + DM/Cont: 15 fold
  MIP-2, LPS + DM/Cont: 39.0 fold
  Thrombospondin-1, LPS + DM/Cont: 56.0 fold
  c-jun/AP-1, LPS + DM/Cont: 9.1 fold
  c-myc, LPS + DM/Cont: 18.4 fold
  mKC, LPS + DM/Cont: 5.8 fold

## CCCC(CCC)C(=O)O [VPA, Valproic acid]
[1]; VPA 0.4 mM pretreatment
  LPS-stimulated NO production (nitrite): 54 % of the control
[1]; VPA 0.6 mM pretreatment
  LPS-stimulated NO production (nitrite): 78 % of the control
[5]; VPA 0.2 mM to 1.2 mM, 48 h
  number of microglia, concentration dependence: robust decrease in microglia number
[5]; VPA 0.6 mM, 6-48 h, significant effect at 24 h and 48 h
  number of microglia, time course: time-dependently decreased the number of microglia
[5]; VPA 0.8 mM, 48 h
  loss of microglia: about 80%
[6]; 12 hours, control as 100%
  GDNF mRNA levels: about 180%
[6]; 24 hours, control as 100%
  GDNF mRNA levels: ~265%
[6]; 48 hours
  GDNF mRNA levels: back to the control value
